How the values were obtained:
Format in all cases: biochemical
Conditions in all cases: Table 8
[1] = system: Rabbit Skeletal myofibrils (rabbit psoas muscle); assay: Myofibril ATPase assay (PK/LDH NADH-coupled), skeletal myofibrils
Protocol: (§1) Myofibril ATPase assays are known in the art to be useful in evaluating small molecules for the treatment of HCM and other cardiac indications. Myosin ATPase activity is assessed by using a coupled reaction system, in which ADP generated by the myosin ATPase function is coupled to the disappearance of NADH through the pyruvate kinase/lactate dehydrogenase (PK-LDH) system. ATPase activity produces ADP, which is used as a substrate for PK to produce pyruvate and regenerate ATP. The pyruvate is then used as a substrate by LDH to oxidize NADH to NAD+. The rate of the reaction is monitored through the time-dependent disappearance of NADH using absorbance at 340 nm, which, when the couple system is in stoichiometric excess, is directly correlated to the ATPase activity of the myosin. Inhibition of ATPase activity by the assayed compounds is indicated by a reduced rate of NADH loss, relative to vehicle-treated controls, over the experimental time window. Rabbit Skeletal and Porcine Ventricle are the primary sources of myofibril material.
(§2) Materials: The following stock solutions and reagents were used in the Myofibril ATPase Assay:
(§3) Stock Solutions of pCa buffer. Combine PIPES, CaCl2), and EGTA solutions with water. Adjust pH to 7.0 and bring final volume to 100 mL.
(§4) Buffer A & Buffer B. Prepare buffers A and B according to the table below.
(§5) Myofibril ATPase Assay Procedure: BSA, ATP, NADH, PEP, and DTT solutions were thawed at room temperature, then transferred to ice. Pellet-frozen myofibrils were transferred with approximately twice the required volume into a sufficiently large tube and capped. Myofibrils were thawed by rolling in a water bath for approximately 15 min at room temperature and cooled on ice. Buffers A and B were prepared by adjusting volumes as necessary for required number of wells and stored on ice. 0.5 μL of the compounds to be assayed were added into wells. 25 μL of Buffer A was dispensed into the wells, followed by 25 μL of Buffer B. The wells were measured for absorbance at 340 nm, using a kinetic protocol in which the wells are read every 1.5-2 min for 75 min. Assay data analysis was performed using a python script that filtered the raw data to retain those points falling between a starting and ending time and between a maximum and minimum absorbance, then used the filtered time-domain 340 nm absorbance data in each well to calculate a slope via linear regression analysis in units of mAU/min. Compound slopes were normalized between 100% and 0% activity, where 100% represented the slope of wells containing only compound vehicle, and fit to a 4-parameter logistic model. In addition to the fit parameters, the EC25% is calculated, relative to the 100% normalized value. In the case of inhibitors, EC50% is also calculated, if available. Fit parameters, calculated effective concentrations, filtered raw data, and calculated slopes were exported, in addition to compound-specific graphs of normalized ATPase activity versus concentration in μM.
Skeletal Myofibril Isolation:
Myofibrils from various animals and tissue types were acquired from a variety of sources: rabbit psoas muscle was purchased from Pel-Freez Biologicals (Rogers, AR) and porcine cardiac muscle was purchased from Exemplar Genetics. All myofibrils were prepared using a method based upon those described in Herrmann et al. (1993) and summarized here. Minced tissue was homogenized for 50 sec with a Polytron homogenizer into 10 volumes (relative to weight in grams) of Isolation Buffer A (50 mM Tris, pH 8.0, 0.1 M potassium acetate, 5 mM KCl, 2 mM DTT, 5 mM EDTA, 0.5% v/v Triton X-100) supplemented with 0.1 mM PMSF, 10 μM leupeptin, 5 μM pepstatin, and 0.5 mM sodium azide. The myofibrils were recovered by centrifugation (Beckman Allegra 6R, 1200 g, 10 min) and resuspended in 10 volumes Isolation Buffer B (Buffer A above without protease inhibitors or sodium azide). The myofibrils were further homogenized as before and recovered by centrifugation. […]

[2] = target: T1, Porcine Ventricle myofibrils (left ventricle of Yucatan minipigs) (Sus scrofa, UniProt P79293); assay: Myofibril ATPase assay (PK/LDH NADH-coupled), ventricle myofibrils
T1 construct: Myofibrils from porcine cardiac muscle was isolated from the left ventricle of Yucatan minipigs; tissue Exemplar Genetics; host or cells: left ventricle of Yucatan minipigs
T1 sequence (P79293 whole entry): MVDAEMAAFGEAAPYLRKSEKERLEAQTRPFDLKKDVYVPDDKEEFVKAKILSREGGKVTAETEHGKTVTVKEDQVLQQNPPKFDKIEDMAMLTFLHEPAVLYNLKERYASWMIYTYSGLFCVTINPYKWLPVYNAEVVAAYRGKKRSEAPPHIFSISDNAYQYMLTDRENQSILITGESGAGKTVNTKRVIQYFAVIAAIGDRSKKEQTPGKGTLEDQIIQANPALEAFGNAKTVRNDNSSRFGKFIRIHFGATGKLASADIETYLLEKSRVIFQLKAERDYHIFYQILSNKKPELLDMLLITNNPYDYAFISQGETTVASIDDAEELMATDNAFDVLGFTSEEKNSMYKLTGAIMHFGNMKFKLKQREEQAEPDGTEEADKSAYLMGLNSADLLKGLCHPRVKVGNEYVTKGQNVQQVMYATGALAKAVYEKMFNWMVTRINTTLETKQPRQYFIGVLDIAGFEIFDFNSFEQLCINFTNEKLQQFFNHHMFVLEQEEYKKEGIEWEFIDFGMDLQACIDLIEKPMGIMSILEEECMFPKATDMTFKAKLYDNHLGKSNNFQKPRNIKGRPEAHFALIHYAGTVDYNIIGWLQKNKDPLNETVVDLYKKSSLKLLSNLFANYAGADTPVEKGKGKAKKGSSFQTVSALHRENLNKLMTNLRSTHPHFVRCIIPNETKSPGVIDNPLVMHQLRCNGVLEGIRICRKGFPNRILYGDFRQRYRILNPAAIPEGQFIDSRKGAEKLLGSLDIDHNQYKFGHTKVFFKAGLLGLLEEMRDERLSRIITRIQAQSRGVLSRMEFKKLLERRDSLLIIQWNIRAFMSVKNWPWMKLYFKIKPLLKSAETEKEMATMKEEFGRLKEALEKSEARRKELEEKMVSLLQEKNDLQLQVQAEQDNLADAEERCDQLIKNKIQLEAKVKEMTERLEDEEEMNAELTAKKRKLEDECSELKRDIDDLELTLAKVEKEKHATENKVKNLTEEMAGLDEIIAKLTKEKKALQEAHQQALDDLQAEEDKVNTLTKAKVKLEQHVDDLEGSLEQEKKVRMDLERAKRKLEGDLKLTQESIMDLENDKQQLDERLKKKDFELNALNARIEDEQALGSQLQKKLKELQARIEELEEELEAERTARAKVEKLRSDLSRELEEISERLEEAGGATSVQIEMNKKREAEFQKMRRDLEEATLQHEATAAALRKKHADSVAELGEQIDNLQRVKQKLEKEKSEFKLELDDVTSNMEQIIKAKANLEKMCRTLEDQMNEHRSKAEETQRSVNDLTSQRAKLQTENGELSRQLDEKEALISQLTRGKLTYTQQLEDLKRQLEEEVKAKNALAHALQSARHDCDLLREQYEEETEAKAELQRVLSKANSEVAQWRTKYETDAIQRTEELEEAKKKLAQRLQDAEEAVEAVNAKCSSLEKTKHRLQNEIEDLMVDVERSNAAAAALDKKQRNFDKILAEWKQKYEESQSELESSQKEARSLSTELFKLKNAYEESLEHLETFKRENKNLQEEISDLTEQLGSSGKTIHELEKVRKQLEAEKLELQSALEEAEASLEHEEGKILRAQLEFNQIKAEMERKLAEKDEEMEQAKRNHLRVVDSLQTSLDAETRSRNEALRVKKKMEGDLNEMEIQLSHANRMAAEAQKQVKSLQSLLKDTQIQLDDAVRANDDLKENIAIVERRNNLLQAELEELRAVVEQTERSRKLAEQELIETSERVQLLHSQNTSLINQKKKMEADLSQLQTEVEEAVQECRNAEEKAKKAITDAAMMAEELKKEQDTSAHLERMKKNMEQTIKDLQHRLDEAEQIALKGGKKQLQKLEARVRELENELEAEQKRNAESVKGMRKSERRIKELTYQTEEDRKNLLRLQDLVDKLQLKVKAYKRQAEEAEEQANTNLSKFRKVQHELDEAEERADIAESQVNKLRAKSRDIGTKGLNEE
Protocol: as §1, §2, §3, §4, §5
Cardiac Myofibril Isolation:
Myofibrils from porcine cardiac muscle was isolated from the left ventricle of Yucatan minipigs. Myofibrils were prepared using a method based upon those described in Herrmann et al. (1993) and summarized here. Minced tissue was homogenized for 50 sec with a Polytron homogenizer into 10 volumes (relative to weight in grams) of Isolation Buffer A (75 mM KCl, 10 mM Imidazole, 2 mM MgCl2, 2 mM EGTA, 1 mM NaN3, 1% v/v Triton X-100) supplemented with 4 mM Phosphocreatine, 1 mM ATP, 50 mM BDM, 1 mM DTT, 1 mM Benzamide HCl, 0.1 mM PMSF, 10 μM leupeptin, 5 μM pepstatin, and 10 mM EDTA. The myofibrils were recovered by centrifugation (Beckman Allegra 6R, 1200 g, 15 min) and resuspended in 10 volumes Isolation Buffer B (Buffer A above without supplemental reagents). The myofibrils were further homogenized described above and recovered by centrifugation for 7 mins. Cellular membranes and debris were removed by 3 washes in Isolation Buffer B, centrifuging each as before. […]

Porcine Atria myofibrils = assay: Myofibril ATPase assay (PK/LDH NADH-coupled), atria myofibrils
Protocol: as §5

Structure (SMILES) | Rabbit Psoas IC25 [1] | Porcine Ventricle IC25 [2] | Porcine Atria IC25 (Porcine Atria myofibrils)
Cc1cc(F)c2c(c1)NC(=O)N(CC(=O)N[C@H](C)c1ccc(C#N)cc1F)C2 [Compound B12] | 760.6 nM | 143 nM | 880 nM
Cc1cc(F)c2c(c1)NC(=O)N(CC(=O)N[C@@H](C)c1ccc(C#N)cc1F)C2 [Compound B13, N-[(1S)-1-(4-Cyano-2-fluorophenyl)ethyl]-2-(5-fluoro-7-methyl-2-oxo-1,4-dihydroquinazolin-3-yl)acetamide] | 13.2 nM | 86 nM | 60 nM
O=C(CN1Cc2c(ccc(F)c2F)NC1=O)N[C@@H]1CS(=O)(=O)c2cc(F)cc(F)c21 [Compound B18] | 100000 nM | 100000 nM | 2250 nM
O=C(CN1Cc2c(ccc(F)c2F)NC1=O)N[C@H]1CS(=O)(=O)c2cc(F)cc(F)c21 [Compound B19] | 100000 nM | 100000 nM | 100000 nM
C[C@@H](NC(=O)CN1Cc2cc(F)cc(C#N)c2NC1=O)c1ccc(C#N)cc1F [Compound B26] | 100000 nM | 100000 nM | 100000 nM
C[C@H](NC(=O)CN1Cc2cc(F)cc(C#N)c2NC1=O)c1ccc(C#N)cc1F [Compound B27] | 542.2 nM | 15590 nM | 2100 nM
C[C@@H](NC(=O)CN1Cc2cc(F)cc(F)c2NC1=O)c1ccc(C#N)cc1F [Compound B28] | 100000 nM | 100000 nM | 6240 nM
C[C@H](NC(=O)CN1Cc2cc(F)cc(F)c2NC1=O)c1ccc(C#N)cc1F [Compound B29] | 124.5 nM | 682.4 nM | 110 nM
C[C@@H](NC(=O)CN1Cc2c(F)cc(Cl)cc2NC1=O)c1ccc(C#N)cc1F [Compound B32] | 1003 nM | 548 nM | 280 nM
C[C@@H](NC(=O)CN1Cc2cc(F)cc(Cl)c2NC1=O)c1ccc(C#N)cc1F [Compound B40] | 100000 nM | 17720 nM | 100000 nM
C[C@H](NC(=O)CN1Cc2cc(F)cc(Cl)c2NC1=O)c1ccc(C#N)cc1F [Compound B41] | 85.7 nM | 1384 nM | 1740 nM
C[C@@H](NC(=O)CN1Cc2cc(F)c(F)cc2NC1=O)c1ccc(C#N)cc1F [Compound B44] | 4901 nM | 527.8 nM | 450 nM

The next lines start with the values.

Rabbit Psoas IC25 [1] | Porcine Ventricle IC25 [2] | Porcine Atria IC25 (Porcine Atria myofibrils) | Structure (SMILES)
93.4 nM | 84.4 nM | 150 nM | CCc1cc(F)cnc1[C@@H](C)NC(=O)CN1Cc2c(ccc(F)c2F)NC1=O [Compound B14]
100000 nM | 100000 nM | 100000 nM | CCc1cc(F)cnc1[C@H](C)NC(=O)CN1Cc2c(ccc(F)c2F)NC1=O [Compound B15]
1205 nM | 1057 nM | 230 nM | C[C@@H](NC(=O)CN1Cc2c(ccc(F)c2F)NC1=O)c1ccc(C#N)nn1 [Compound B16]
100000 nM | 100000 nM | 100000 nM | CC(C)c1cc(F)cnc1[C@@H](C)NC(=O)CN1Cc2c(ccc(F)c2F)NC1=O [Compound B20]
100000 nM | 100000 nM | 100000 nM | CC(C)c1cc(F)cnc1[C@H](C)NC(=O)CN1Cc2c(ccc(F)c2F)NC1=O [Compound B21]
901.2 nM | 6451 nM | 10830 nM | Cc1cc(C#N)nnc1[C@@H](C)NC(=O)CN1Cc2c(ccc(F)c2F)NC1=O [Compound B22]
30610 nM | 100000 nM | 100000 nM | Cc1ccnnc1[C@@H](C)NC(=O)CN1Cc2c(ccc(F)c2F)NC1=O [Compound B24]
100000 nM | 100000 nM | 70 nM | Cc1ccc2c(c1F)CN(CC(=O)N[C@H](C)c1ccc(C#N)cc1F)C(=O)N2 [Compound B30]
10 nM | 42.1 nM | 20 nM | Cc1ccc2c(c1F)CN(CC(=O)N[C@@H](C)c1ccc(C#N)cc1F)C(=O)N2 [Compound B31, N-[(1S)-1-(4-cyano-2-fluorophenyl)ethyl]-2-(5-fluoro-6-methyl-2-oxo-1,4-dihydroquinazolin-3-yl)acetamide]
9.3 nM | 66.7 nM | 20 nM | C[C@H](NC(=O)CN1Cc2c(F)cc(Cl)cc2NC1=O)c1ccc(C#N)cc1F [Compound B33, 2-(7-Chloro-5-fluoro-2-oxo-1,4-dihydroquinazolin-3-yl)-N-[(1S)-1-(4-cyano-2-fluorophenyl)ethyl]acetamide]
100000 nM | 3618 nM | 160 nM | Cc1cc([C@@H](C)NC(=O)CN2Cc3c(ccc(F)c3F)NC2=O)ncc1C#N [Compound B34]
10.5 nM | 14.8 nM | 20 nM | C[C@@H](NC(=O)CN1Cc2c(ccc(F)c2F)NC1=O)c1ncc(F)cc1Cl [Compound B36]
384.4 nM | 490.1 nM | 280 nM | C[C@H](NC(=O)CN1Cc2c(ccc(F)c2F)NC1=O)c1ncc(F)cc1Cl [Compound B37]
10640 nM | 3820 nM | 980 nM | Cc1cc(F)cnc1[C@@H](C)NC(=O)CN1Cc2c(ccc(F)c2F)NC1=O [Compound B38]
20.3 nM | 48.3 nM | 20 nM | Cc1cc(F)cnc1[C@H](C)NC(=O)CN1Cc2c(ccc(F)c2F)NC1=O [Compound B39]
745.5 nM | 3177 nM | 590 nM | C[C@@H](NC(=O)CN1Cc2c(F)cc(F)cc2NC1=O)c1ccc(C#N)cc1F [Compound B42]
15.8 nM | 47.3 nM | 40 nM | C[C@H](NC(=O)CN1Cc2c(F)cc(F)cc2NC1=O)c1ccc(C#N)cc1F [Compound B43]

From patent publication US12509431B2, “1,4-dihydroquinazolinone compounds and uses thereof” (Edgewise Therapeutics, Inc., priority 2022, dated 2025)
